The compounds below were run against T1, Aromatase (Homo sapiens, UniProt P11511).
T1 sequence (P11511 whole entry): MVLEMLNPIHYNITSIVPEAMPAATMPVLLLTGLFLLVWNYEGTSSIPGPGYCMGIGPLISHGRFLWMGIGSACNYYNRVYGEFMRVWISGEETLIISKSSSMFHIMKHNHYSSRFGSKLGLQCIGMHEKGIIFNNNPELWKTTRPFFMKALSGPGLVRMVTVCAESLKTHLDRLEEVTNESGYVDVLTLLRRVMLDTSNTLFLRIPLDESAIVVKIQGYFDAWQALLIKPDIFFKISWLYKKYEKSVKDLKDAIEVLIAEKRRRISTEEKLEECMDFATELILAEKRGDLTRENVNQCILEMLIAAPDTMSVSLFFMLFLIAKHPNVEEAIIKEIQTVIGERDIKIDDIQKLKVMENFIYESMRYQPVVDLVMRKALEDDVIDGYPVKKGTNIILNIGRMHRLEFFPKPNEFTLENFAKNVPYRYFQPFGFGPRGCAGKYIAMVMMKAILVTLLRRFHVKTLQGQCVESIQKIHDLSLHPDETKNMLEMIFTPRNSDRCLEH

| IC50 [µM] | SMILES |
| --- | --- |
| 3.3 | O=C1/C(=C\c2ccncc2)C(c2ccccc2)Oc2ccccc21 (mixture of isomers) |
| 1.6 | COc1ccc2c(c1)OC(c1ccccc1)/C(=C/c1ccncc1)C2=O (mixture of isomers) |
| 0.8 | O=C1/C(=C/c2ccncc2)C(c2ccccc2)Oc2ccccc21 (centres undefined) |
| 0.62 | COc1ccc2c(c1)OC(c1ccccc1)/C(=C\c1ccncc1)C2=O (centres undefined) |
